# Experimental data taken from the supplement of paper PMC4862054.
# Tested on: MFM-223
# Test: normalised response (% of control), CellTiter-Glo; higher = more viable cells (100 = DMSO, 0 = benzethonium chloride kill control)
# Conditions: incubation time: 72 h
# Procedure, shortened: (§1)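 Breast cancer cell lines, seeded at 20 µl suspension per well, were incubated for 72 h in 384-well plates containing compound at 5 concentrations. These concentrations rose in 10-fold steps over a 10,000-fold range set for each compound. CellTox Green fluorescence (485/520 nm) was read, then CellTiter-Glo luminescence after 10 min at room temperature, and each plate was normalised to 0.1 % DMSO (100) and a positive kill control (0). Values are normalised signals, each at one concentration.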
row,SMILES,normalised response
1,C[C@]12CC[C@@H]3c4ccc(O)cc4C[C@@H](CCCCCCCCC[S+]([O-])CCCC(F)(F)C(F)(F)F)[C@H]3[C@@H]1CC[C@@H]2O (stereo partly drawn) [Fulvestrant] (1 nM),104%
2,CCC1(c2ccc(N)cc2)CCC(=O)NC1=O (stereo not drawn) [Aminoglutethimide] (1 nM),99.8%
3,COc1cc2nccc(Oc3ccc(NC(=O)C4(C(=O)Nc5ccc(F)cc5)CC4)cc3)c2cc1OC [Cabozantinib] (0.1 nM),99.5%
4,C[C@@H](Oc1cc(-c2cnn(C3CCNCC3)c2)cnc1N)c1c(Cl)ccc(F)c1Cl [Crizotinib] (1 nM),101%

# Tested on: HCC1937
# Test: as above
# Conditions: incubation time: 72 h
# Procedure, shortened: as §1
row,SMILES,normalised response
1,CN(N=O)C(=O)N[C@@H](C=O)[C@@H](O)[C@H](O)[C@H](O)CO [Streptozocin] (1 nM),104%
2,C=C(c1ccc(C(=O)O)cc1)c1cc2c(cc1C)C(C)(C)CCC2(C)C [Bexarotene] (1 nM),100%
3,C[C@]12CC[C@@H]3c4ccc(O)cc4C[C@@H](CCCCCCCCC[S+]([O-])CCCC(F)(F)C(F)(F)F)[C@H]3[C@@H]1CC[C@@H]2O (stereo partly drawn) [Fulvestrant] (1 nM),96.9%
4,CCC1(c2ccc(N)cc2)CCC(=O)NC1=O (stereo not drawn) [Aminoglutethimide] (1 nM),96.2%
5,COc1cc2nccc(Oc3ccc(NC(=O)C4(C(=O)Nc5ccc(F)cc5)CC4)cc3)c2cc1OC [Cabozantinib] (0.1 nM),100%
6,C[C@@H](Oc1cc(-c2cnn(C3CCNCC3)c2)cnc1N)c1c(Cl)ccc(F)c1Cl [Crizotinib] (1 nM),105%

# Tested on: DU-4475
# Test: as above
# Conditions: incubation time: 72 h
# Procedure, shortened: as §1
row,SMILES,normalised response
1,CN(N=O)C(=O)N[C@@H](C=O)[C@@H](O)[C@H](O)[C@H](O)CO [Streptozocin] (1 nM),95.7%
2,C=C(c1ccc(C(=O)O)cc1)c1cc2c(cc1C)C(C)(C)CCC2(C)C [Bexarotene] (1 nM),99.6%
3,C[C@]12CC[C@@H]3c4ccc(O)cc4C[C@@H](CCCCCCCCC[S+]([O-])CCCC(F)(F)C(F)(F)F)[C@H]3[C@@H]1CC[C@@H]2O (stereo partly drawn) [Fulvestrant] (1 nM),102%
4,CCC1(c2ccc(N)cc2)CCC(=O)NC1=O (stereo not drawn) [Aminoglutethimide] (1 nM),99.1%
5,COc1cc2nccc(Oc3ccc(NC(=O)C4(C(=O)Nc5ccc(F)cc5)CC4)cc3)c2cc1OC [Cabozantinib] (0.1 nM),95.2%
6,C[C@@H](Oc1cc(-c2cnn(C3CCNCC3)c2)cnc1N)c1c(Cl)ccc(F)c1Cl [Crizotinib] (1 nM),105%

# Tested on: MDA-MB-231
# Test: as above
# Conditions: incubation time: 72 h
# Procedure, shortened: as §1
row,SMILES,normalised response
1,CN(N=O)C(=O)N[C@@H](C=O)[C@@H](O)[C@H](O)[C@H](O)CO [Streptozocin] (1 nM),108%
2,C=C(c1ccc(C(=O)O)cc1)c1cc2c(cc1C)C(C)(C)CCC2(C)C [Bexarotene] (1 nM),107%
3,C[C@]12CC[C@@H]3c4ccc(O)cc4C[C@@H](CCCCCCCCC[S+]([O-])CCCC(F)(F)C(F)(F)F)[C@H]3[C@@H]1CC[C@@H]2O (stereo partly drawn) [Fulvestrant] (1 nM),101%
4,CCC1(c2ccc(N)cc2)CCC(=O)NC1=O (stereo not drawn) [Aminoglutethimide] (1 nM),110%
5,COc1cc2nccc(Oc3ccc(NC(=O)C4(C(=O)Nc5ccc(F)cc5)CC4)cc3)c2cc1OC [Cabozantinib] (0.1 nM),104%
6,C[C@@H](Oc1cc(-c2cnn(C3CCNCC3)c2)cnc1N)c1c(Cl)ccc(F)c1Cl [Crizotinib] (1 nM),108%

# Tested on: HCC1599
# Test: as above
# Conditions: incubation time: 72 h
# Procedure, shortened: as §1
row,SMILES,normalised response
1,CN(N=O)C(=O)N[C@@H](C=O)[C@@H](O)[C@H](O)[C@H](O)CO [Streptozocin] (1 nM),96.4%
2,C=C(c1ccc(C(=O)O)cc1)c1cc2c(cc1C)C(C)(C)CCC2(C)C [Bexarotene] (1 nM),98.9%
3,C[C@]12CC[C@@H]3c4ccc(O)cc4C[C@@H](CCCCCCCCC[S+]([O-])CCCC(F)(F)C(F)(F)F)[C@H]3[C@@H]1CC[C@@H]2O (stereo partly drawn) [Fulvestrant] (1 nM),90.3%
4,CCC1(c2ccc(N)cc2)CCC(=O)NC1=O (stereo not drawn) [Aminoglutethimide] (1 nM),91.7%
5,COc1cc2nccc(Oc3ccc(NC(=O)C4(C(=O)Nc5ccc(F)cc5)CC4)cc3)c2cc1OC [Cabozantinib] (0.1 nM),113%
6,C[C@@H](Oc1cc(-c2cnn(C3CCNCC3)c2)cnc1N)c1c(Cl)ccc(F)c1Cl [Crizotinib] (1 nM),106%
